Data on 19 compounds can be found in patent EP3383875B1, “3-PYRIMIDINYL PYRROLO [2,3-B] PYRIDINE AS ANTICANCER AGENTS AND THE PROCESS FOR THE PREPARATION THEREOF” (Council Of Scientific & Industrial Research, priority 2015, dated 2017).

One test concerns MCF-7. Description: MTT assay on cancer cell line MCF-7. The format is cell-based, Human. Conditions: Homo sapiens. As for the experimental part:
(§1) Cell culture, growth conditions and treatments. […] Different molecules were dissolved in DMSO and were delivered to cell cultures in complete medium.

In the next test the test system is HCT-116. Description: MTT assay on cancer cell line HCT-116. The test is classed as cell-based, human. Conditions: Homo sapiens, at 10µM, Table 9 (for reference), read-out: In vitro cell inhibition, % of inhibition, HCT-116. As to the method: as §1
The test system of a further test is SHSY-5Y. The experiment in a line: MTT assay on cancer cell line SHSY-5Y. The format is cell-based, human. The note with it: Homo sapiens, SH-SY5Y. As to the method:
as §1

A further test deals with MDA-MB435. The experiment in a line: MTT assay on cancer cell line MDA-MB435. The test is classed as cell-based, Human. Conditions: Homo sapiens, MDA-MB-435; MDA-MB435; at 10µM; Table 9 (for reference); read-out: In vitro cell inhibition, % of inhibition, MDA-MB435. As for the experimental part:
as §1

For another test, the system named is PC-3. Description: MTT assay on cancer cell line PC-3. The format is cell-based, human. The note with it: Homo sapiens, Table 9 (for reference), read-out: In vitro cell inhibition, % of inhibition, PC-3. As to the method:
as §1

The target in another test is CDK-9/Cyclin T1 (Homo sapiens, UniProt P50750). The experiment in a line: CDK inhibition assay, CDK-9/Cyclin T1 against substrate peptide, 33P-ATP. The format is biochemical. As to the method: (50-1000 cpm/pmole) and incubated for 30 min at room temperature. Assays were stopped by addition of 5 µl of 0.5 M (3%) orthophosphoric acid and then harvested onto P81 Unifilter plates with a wash buffer of 50 mM orthophosphoric acid.
Chain of CDK-9/Cyclin T1 (P50750 whole entry): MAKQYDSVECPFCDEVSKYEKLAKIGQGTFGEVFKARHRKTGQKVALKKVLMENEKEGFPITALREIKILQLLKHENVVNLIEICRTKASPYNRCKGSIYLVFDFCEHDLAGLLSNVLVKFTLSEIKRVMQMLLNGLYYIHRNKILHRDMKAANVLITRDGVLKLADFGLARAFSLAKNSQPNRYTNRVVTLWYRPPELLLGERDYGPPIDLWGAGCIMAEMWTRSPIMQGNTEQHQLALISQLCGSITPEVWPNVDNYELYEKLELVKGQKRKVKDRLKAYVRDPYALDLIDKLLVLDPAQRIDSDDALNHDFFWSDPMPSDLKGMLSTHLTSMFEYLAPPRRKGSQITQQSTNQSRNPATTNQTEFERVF
Chain of CDK-9/Cyclin T1 (O60563 whole entry partner): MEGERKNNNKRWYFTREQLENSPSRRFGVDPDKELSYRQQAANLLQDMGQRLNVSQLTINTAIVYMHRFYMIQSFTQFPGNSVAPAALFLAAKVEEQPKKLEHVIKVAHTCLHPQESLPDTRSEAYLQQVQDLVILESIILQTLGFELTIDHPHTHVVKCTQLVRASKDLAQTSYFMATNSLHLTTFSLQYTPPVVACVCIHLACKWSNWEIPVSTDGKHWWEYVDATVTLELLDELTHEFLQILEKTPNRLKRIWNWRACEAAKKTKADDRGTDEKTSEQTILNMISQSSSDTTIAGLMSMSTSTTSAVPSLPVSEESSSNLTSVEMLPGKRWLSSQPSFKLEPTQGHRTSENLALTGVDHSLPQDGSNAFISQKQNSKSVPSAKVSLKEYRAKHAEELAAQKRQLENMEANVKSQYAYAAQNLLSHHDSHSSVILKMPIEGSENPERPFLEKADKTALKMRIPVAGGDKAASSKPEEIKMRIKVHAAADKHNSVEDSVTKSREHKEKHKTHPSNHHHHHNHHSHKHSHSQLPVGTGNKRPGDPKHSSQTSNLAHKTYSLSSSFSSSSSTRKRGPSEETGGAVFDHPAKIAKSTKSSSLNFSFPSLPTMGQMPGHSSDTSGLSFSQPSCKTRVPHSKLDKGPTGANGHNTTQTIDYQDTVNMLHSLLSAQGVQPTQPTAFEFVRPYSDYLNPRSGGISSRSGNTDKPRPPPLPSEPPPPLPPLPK

A further test addresses CDK-2/cyclin A (Homo sapiens, UniProt P24941). Description: CDK inhibition assay, CDK-2/cyclin A against Histone HI, 33P-ATP. The test is classed as biochemical. Summed up: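 CDK-2/cyclin A (5-20 mU) phosphorylating Histone HI (1 mg/ml) in 50 mM Hepes pH 7.5, 100 mM NaCl, 10 mM Mg acetate, 0.02 mM [33P-γ-ATP], 30 min at room temperature. Stopped with orthophosphoric acid, captured on P81 filters for radiometric readout.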

Where [1] appears, read: MCF7, MCF-7, Table 9 (for reference), read-out: In vitro cell inhibition, % of inhibition, MCF-7.
[2] abbreviates: MCF7, read-out: inhibition against MCF-7 cell lines.
Where [3] appears, read: SHSY-5Y, Table 9 (for reference), read-out: In vitro cell inhibition, % of inhibition, SHSY-5Y.
Setting [4] is: read-out: inhibition against SHSY-5Y cell lines.
The mark [5] stands for this setting: at 500 nM, Table-7, read-out: In vitro CDK2 % of inhibition.
Setting [6] is: at 500 nM, Table-7, read-out: In vitro CDK9 % of inhibition.
Setting [7] is: at 500 nM, read-out: inhibition against CDK9.
The mark [8] stands for this setting: at 500 nM, read-out: inhibition against CDK2.
[9] abbreviates: at 500 nM, Table-6, read-out: In vitro CDK9 % of inhibition.
The mark [10] stands for this setting: at 500 nM, Table-6, read-out: In vitro CDK2 % of inhibition.

Where two headings read alike, the source gives them in different places. Some results are limits rather than exact numbers.

Regarding `COc1ccc2[nH]c(-c3cnc4[nH]cc(-c5ccnc(N)n5)c4c3)cc2c1` [1C17, 4-(5-(5-methoxy-1H-indol-2-yl)-1H-pyrrolo[2,3-b]pyridin-3-yl)pyrimidin-2-amine], the inhibition at 10 µM is above 70% with MCF-7 (setting [1]); above 70% with MCF-7 (setting [2]); above 70% in the test on HCT-116; below 50% with SHSY-5Y (setting [3]); above 70% in the test with MDA-MB435; above 50% in the test with PC-3.

Turning to `Cc1ccc(-c2cnc3[nH]cc(-c4ccnc(N)n4)c3c2)cc1` [1C6, 4-(5-(p-tolyl)-1H-pyrrolo[2,3-b]pyridin-3-yl)pyrimidin-2-amine], the inhibition at 10 µM in the test on MCF-7 (setting [1]), with MCF-7 (setting [2]), in the test with HCT-116, in the test with SHSY-5Y (setting [3]), with SHSY-5Y (setting [4]) and in the test with MDA-MB435 was above 70% each time. Also, the inhibition at 10 µM in the test with PC-3 is above 50%.

For `Nc1nccc(-c2c[nH]c3ncc(-c4ccc(C(F)(F)F)cc4)cc23)n1` [1C1, 4-(5-(4-(trifluoromethyl)phenyl)-1H-pyrrolo[2,3-b]pyridin-3-yl)pyrimidin-2-amine], the inhibition at 10 µM in the test with MCF-7 (setting [1]) is above 50%; in the test with MCF-7 (setting [2]) it was above 50%; in the test with HCT-116 it was above 50%; with SHSY-5Y (setting [3]), above 50%; in the test on MDA-MB435, below 50%; with PC-3, above 50%.

Consider `Nc1nccc(-c2c[nH]c3ncc(-c4ccoc4)cc23)n1` [1C16, 4-(5-(furan-3-yl)-1H-pyrrolo[2,3-b]pyridin-3-yl)pyrimidin-2-amine], for which the inhibition at 10 µM in the test with MCF-7 (setting [1]), with MCF-7 (setting [2]), with HCT-116, with SHSY-5Y (setting [3]), in the test on SHSY-5Y (setting [4]) and with MDA-MB435 was above 70% each time. Moreover, in the test on PC-3, the inhibition at 10 µM was below 50%.

`Nc1nccc(-c2c[nH]c3ncc(-c4cccc(F)c4)cc23)n1` [1C5, 4-(5-(3-fluorophenyl)-1H-pyrrolo[2,3-b]pyridin-3-yl)pyrimidin-2-amine]: the inhibition at 10 µM in the test on MCF-7 (setting [1]), with MCF-7 (setting [2]), in the test with HCT-116, with SHSY-5Y (setting [3]), in the test on SHSY-5Y (setting [4]) and with MDA-MB435 was above 70% throughout. Further, the inhibition at 10 µM in the test with PC-3 was below 50%.

As to `Nc1nccc(-c2c[nH]c3ncc(-c4cc5ccccc5s4)cc23)n1` [1C18, 4-(5-(benzo[b]thiophen-2-yl)-1H-pyrrolo[2,3-b]pyridin-3-yl)pyrimidin-2-amine], the inhibition at 10 µM was above 70% in the test on MCF-7 (setting [1]); above 70% with HCT-116; above 70% in the test on SHSY-5Y (setting [3]); above 70% in the test on SHSY-5Y (setting [4]); below 50% in the test with MDA-MB435; above 70% in the test with PC-3.

In the case of `CSc1ccc(-c2cnc3[nH]cc(-c4ccnc(N)n4)c3c2)cc1` [1C8, 4-(5-(4-(methylthio)phenyl)-1H-pyrrolo[2,3-b]pyridin-3-yl)pyrimidin-2-amine], the inhibition at 10 µM is above 50% with MCF-7 (setting [1]); above 50% in the test with MCF-7 (setting [2]); above 70% with HCT-116; above 50% with SHSY-5Y (setting [3]); above 70% with MDA-MB435; below 50% in the test with PC-3.

Turning to `Nc1nccc(-c2c[nH]c3ncc(-c4ccc(C=O)cc4)cc23)n1` [1C13, 4-(3-(2-aminopyrimidin-4-yl)-1H-pyrrolo[2,3-b]pyridin-5-yl)benzaldehyde], the inhibition at 10 µM with MCF-7 (setting [1]), in the test on MCF-7 (setting [2]), in the test on HCT-116, with SHSY-5Y (setting [3]), in the test on MDA-MB435 and in the test on PC-3 was above 50% throughout.

On to `Nc1nccc(-c2c[nH]c3ncc(-c4cccnc4)cc23)n1` [1C15, 4-(5-(pyridin-3-yl)-1H-pyrrolo[2,3-b]pyridin-3-yl)pyrimidin-2-amine], for which the inhibition at 10 µM with MCF-7 (setting [1]) was above 70%; with MCF-7 (setting [2]), above 70%; with HCT-116, above 50%; in the test on SHSY-5Y (setting [3]), above 70%; in the test on SHSY-5Y (setting [4]), above 70%; in the test with MDA-MB435 it was above 70%. Besides, the inhibition at 10 µM with PC-3 is below 50%.

Regarding `Nc1nccc(-c2c[nH]c3ncc(-c4ccc(Cl)cc4)cc23)n1` [1C12, 4-(5-(4-chlorophenyl)-1H-pyrrolo[2,3-b]pyridin-3-yl)pyrimidin-2-amine], the inhibition at 10 µM in the test on MCF-7 (setting [1]), with MCF-7 (setting [2]), with HCT-116, in the test on SHSY-5Y (setting [3]), in the test with SHSY-5Y (setting [4]) and in the test with MDA-MB435 was above 70% in each case. Further, in the test with PC-3, the inhibition at 10 µM was above 70%.

Regarding `Nc1nccc(-c2c[nH]c3ncc(-c4cc5ccccc5[nH]4)cc23)n1` [1C19, 4-(5-(1H-indol-2-yl)-1H-pyrrolo[2,3-b]pyridin-3-yl)pyrimidin-2-amine], the inhibition at 10 µM is above 50% in the test with MCF-7 (setting [1]); above 70% in the test with MCF-7 (setting [2]); above 50% with HCT-116; above 70% with SHSY-5Y (setting [3]); above 70% with SHSY-5Y (setting [4]); above 50% in the test with MDA-MB435. For the same compound, the inhibition at 10 µM in the test on PC-3 was below 50%.

In the case of `c1ccc(CCNc2nccc(-c3c[nH]c4ncc(-c5ccoc5)cc34)n2)cc1` [1B16, 4-(5-(furan-3-yl)-1H-pyrrolo[2,3-b]pyridin-3-yl)-N-phenethylpyrimidin-2-amine], the inhibition at 0.5 µM on CDK-9/Cyclin T1 (read-out: In vitro CDK9 % of inhibition), at CDK-9/Cyclin T1 (read-out: inhibition against CDK9), at CDK-2/cyclin A (setting [5]) and at CDK-2/cyclin A (read-out: inhibition against CDK2) was above 70% in each case.

As to `COc1ccc2[nH]c(-c3cnc4[nH]cc(-c5ccnc(NCCc6ccccc6)n5)c4c3)cc2c1` [1B17, 4-(5-(5-methoxy-1H-indol-2-yl)-1H-pyrrolo[2,3-b]pyridin-3-yl)-N-phenethylpyrimidin-2-amine], the inhibition at 0.5 µM at CDK-9/Cyclin T1 (setting [6]), on CDK-9/Cyclin T1 (setting [7]), on CDK-2/cyclin A (setting [5]) and on CDK-2/cyclin A (setting [8]) was above 50% throughout.

Turning to `CSc1ccc(-c2cnc3[nH]cc(-c4ccnc(NC5CCCC5)n4)c3c2)cc1` [1A28, N-cyclopentyl-4-(5-(4-(methylthio)phenyl)-1H-pyrrolo[2,3-b]pyridin-3-yl)pyrimidin-2-amine], the inhibition at 0.5 µM at CDK-9/Cyclin T1 (setting [9]), on CDK-9/Cyclin T1 (setting [7]), at CDK-2/cyclin A (setting [10]) and on CDK-2/cyclin A (setting [8]) was above 50% each time.

On to `CSc1ccccc1-c1cnc2[nH]cc(-c3ccnc(NC4CCCC4)n3)c2c1` [1A29, N-cyclopentyl-4-(5-(2-(methylthio)phenyl)-1H-pyrrolo[2,3-b]pyridin-3-yl)pyrimidin-2-amine], for which the inhibition at 0.5 µM at CDK-9/Cyclin T1 (setting [9]), on CDK-9/Cyclin T1 (setting [7]), on CDK-2/cyclin A (setting [10]) and at CDK-2/cyclin A (setting [8]) was above 70% in each case.

On to `COc1ccc2[nH]c(-c3cnc4[nH]cc(-c5ccnc(NC6CC6)n5)c4c3)cc2c1` [1A17, N-cyclopropyl-4-(5-(5-methoxy-1H-indol-2-yl)-1H-pyrrolo[2,3-b]pyridin-3-yl)pyrimidin-2-amine], for which the inhibition at 0.5 µM at CDK-9/Cyclin T1 (setting [9]), on CDK-9/Cyclin T1 (setting [7]), at CDK-2/cyclin A (setting [10]) and at CDK-2/cyclin A (setting [8]) was above 50% in each case.

With `FC(F)(F)c1cccc(-c2cnc3[nH]cc(-c4ccnc(NC5CCCCCC5)n4)c3c2)c1` [1A44, N-cycloheptyl-4-(5-(3-(trifluoromethyl)phenyl)-1H-pyrrolo[2,3-b]pyridin-3-yl)pyrimidin-2-amine], the inhibition at 0.5 µM at CDK-9/Cyclin T1 (setting [9]) is above 50%; on CDK-2/cyclin A (setting [10]) it was above 70%.

As to `c1ccc(CCNc2nccc(-c3c[nH]c4ncc(-c5cccc6ccccc56)cc34)n2)cc1` [1B14, 4-(5-(naphthalen-1-yl)-1H-pyrrolo[2,3-b]pyridin-3-yl)-N-phenethylpyrimidin-2-amine], the inhibition at 0.5 µM on CDK-9/Cyclin T1 (setting [6]), on CDK-9/Cyclin T1 (setting [7]), on CDK-2/cyclin A (setting [5]) and at CDK-2/cyclin A (setting [8]) was above 50% throughout.

Take `c1cc(-c2c[nH]c3ncc(-c4ccoc4)cc23)nc(NC2CCCCCC2)n1` [1A56, N-cycloheptyl-4-(5-(furan-3-yl)-1H-pyrrolo[2,3-b]pyridin-3-yl)pyrimidin-2-amine]: the inhibition at 0.5 µM at CDK-9/Cyclin T1 (setting [6]), on CDK-9/Cyclin T1 (setting [7]), on CDK-2/cyclin A (setting [5]) and at CDK-2/cyclin A (setting [8]) was above 70% throughout.
